According to patent publication US20210215714A1, “COMPLEMENT ALTERNATIVE PATHWAY-ASSOCIATED NEPHROPATHY BIOMARKERS” (Achillion Pharmaceuticals, Inc., priority 2018, published 2021):

System: Ba
Assay: Phase 2a study: urinary Ba (MicroVue Ba Enzyme Immunoassay)
Type: in vivo, human
[1] = Patient A, 100 mg TID, Day 1/0 Hour
[2] = Patient A, 100 mg TID, Day 7/0 Hour
[3] = Patient A, 100 mg TID, Day 15 Taper
[4] = Patient A, 100 mg TID, Day 16 Taper
[5] = Patient A, 100 mg TID, Day 17 Taper
[6] = Patient A, 100 mg TID, Day 21 Taper
[7] = Patient A, 100 mg TID, Follow-Up Day 24
[8] = Patient A, 100 mg TID, Follow-Up Day 28
[9] = Patient A, 100 mg TID, Follow-Up Day 49
[10] = Patient B, 100 mg TID, Day 1/0 Hour
[11] = Patient B, 100 mg TID, Day 7/0 Hour
[12] = Patient B, 100 mg TID, Day 15 Taper
[13] = Patient B, 100 mg TID, Day 16 Taper
[14] = Patient B, 100 mg TID, Day 17 Taper
[15] = Patient B, 100 mg TID, Day 21 Taper
[16] = Patient B, 100 mg TID, Follow-Up Day 24
[17] = Patient B, 100 mg TID, Follow-Up Day 28
[18] = Patient B, 100 mg TID, Follow-Up Day 49
[19] = Patient C, 200 mg TID, Day 1/0 Hour
[20] = Patient C, 200 mg TID, Day 7/0 Hour
[21] = Patient C, 200 mg TID, Day 15 Taper
[22] = Patient C, 200 mg TID, Day 16 Taper
[23] = Patient C, 200 mg TID, Day 17 Taper
[24] = Patient C, 200 mg TID, Day 21 Taper
[25] = Patient C, 200 mg TID, Follow-Up Day 24
[26] = Patient C, 200 mg TID, Follow-Up Day 28
[27] = Patient C, 200 mg TID, Follow-Up Day 49
[28] = Patient D, 200 mg TID, Day 1/0 Hour
[29] = Patient D, 200 mg TID, Day 7/0 Hour
[30] = Patient D, 200 mg TID, Day 15 Taper
[31] = Patient D, 200 mg TID, Day 17 Taper
[32] = Patient D, 200 mg TID, Day 21 Taper

## CC(=O)c1nn(CC(=O)N2C[C@H](F)C[C@H]2C(=O)Nc2cccc(Br)n2)c2ccc(-c3cnc(C)nc3)cc12 [Compound 1, (2S,4R)-1-(2-(3-acetyl-5-(2-methylpyrimidin-5-yl)-1H-indazol-1-yl)acetyl)-N-(6-bromopyridin-2-yl)-4-fluoropyrrolidine-2-carboxamide]
[1]
  Ba/ALB: 22.1 ng/mg
  Ba/Cr: 5.7 µg/mmol
  Urine Ba: 47.1 ng/mL
Patient A, 100 mg TID, Day 4
  Ba/ALB: 8.4 ng/mg
  Ba/Cr: 1.8 µg/mmol
  Urine Ba: 14.7 ng/mL
[2]
  Ba/ALB: 7.5 ng/mg
  Ba/Cr: 1.8 µg/mmol
  Urine Ba: 11.6 ng/mL
Patient A, 100 mg TID, Day 10
  Ba/ALB: 6.1 ng/mg
  Ba/Cr: 1.4 µg/mmol
  Urine Ba: 8.6 ng/mL
[3]
  Ba/ALB: 11.4 ng/mg
  Ba/Cr: 1.6 µg/mmol
  Urine Ba: 11.9 ng/mL
[4]
  Ba/ALB: 16.3 ng/mg
  Ba/Cr: 2.3 µg/mmol
  Urine Ba: 17.4 ng/mL
[5]
  Ba/ALB: 18.6 ng/mg
  Ba/Cr: 2.1 µg/mmol
  Urine Ba: 21.2 ng/mL
[6]
  Ba/ALB: 65.5 ng/mg
  Ba/Cr: 9.2 µg/mmol
  Urine Ba: 79.8 ng/mL
[7]
  Ba/ALB: 83.3 ng/mg
  Ba/Cr: 11.5 µg/mmol
  Urine Ba: 115.3 ng/mL
[8]
  Ba/ALB: 77.1 ng/mg
  Ba/Cr: 10.2 µg/mmol
  Urine Ba: 100.8 ng/mL
[9]
  Ba/ALB: 26.5 ng/mg
  Ba/Cr: 3.8 µg/mmol
  Urine Ba: 16.5 ng/mL
Patient A, 100 mg TID, Screen
  Ba/ALB: 15.0 ng/mg
  Ba/Cr: 3.4 µg/mmol
  Urine Ba: 28.3 ng/mL
[10]
  Ba/ALB: 225 ng/mg
  Ba/Cr: 129.9 µg/mmol
  Urine Ba: 793 ng/mL
Patient B, 100 mg TID, Day 4
  Ba/ALB: 47 ng/mg
  Ba/Cr: 12.4 µg/mmol
  Urine Ba: 158 ng/mL
[11]
  Ba/ALB: 41 ng/mg
  Ba/Cr: 10.2 µg/mmol
  Urine Ba: 149 ng/mL
Patient B, 100 mg TID, Day 10
  Ba/ALB: 28 ng/mg
  Ba/Cr: 7.0 µg/mmol
  Urine Ba: 53 ng/mL
Patient B, 100 mg TID, Day 14
  Ba/ALB: 54 ng/mg
  Ba/Cr: 14.2 µg/mmol
  Urine Ba: 238 ng/mL
[12]
  Ba/ALB: 58 ng/mg
  Ba/Cr: 19.0 µg/mmol
  Urine Ba: 209 ng/mL
[13]
  Ba/ALB: 77 ng/mg
  Ba/Cr: 25.2 µg/mmol
  Urine Ba: 318 ng/mL
[14]
  Ba/ALB: 55 ng/mg
  Urine Ba: 164 ng/mL
[15]
  Ba/ALB: 43 ng/mg
  Ba/Cr: 15.9 µg/mmol
  Urine Ba: 129 ng/mL
[16]
  Ba/ALB: 87 ng/mg
  Ba/Cr: 41.1 µg/mmol
  Urine Ba: 251 ng/mL
[17]
  Ba/ALB: 65 ng/mg
  Ba/Cr: 24.6 µg/mmol
  Urine Ba: 175 ng/mL
[18]
  Ba/ALB: 771 ng/mg
  Ba/Cr: 108.0 µg/mmol
  Urine Ba: 1727 ng/mL
Patient B, 100 mg TID, Screen
  Ba/ALB: 97 ng/mg
  Ba/Cr: 47.1 µg/mmol
  Urine Ba: 348 ng/mL
[19]
  Ba/ALB: 2.9 ng/mg
  Ba/Cr: 0.168 µg/mmol
  Urine Ba: 0.30 ng/mL
Patient C, 200 mg TID, Day 4
  Ba/ALB: 1.5 ng/mg
  Ba/Cr: 0.040 µg/mmol
  Urine Ba: 0.08 ng/mL
[20]
  Ba/ALB: 2.6 ng/mg
  Ba/Cr: 0.056 µg/mmol
  Urine Ba: 0.21 ng/mL
Patient C, 200 mg TID, Day 10
  Ba/ALB: 1.5 ng/mg
  Ba/Cr: 0.053 µg/mmol
  Urine Ba: 0.08 ng/mL
Patient C, 200 mg TID, Day 14
  Ba/ALB: 2.2 ng/mg
  Ba/Cr: 0.068 µg/mmol
  Urine Ba: 0.09 ng/mL
[21]
  Ba/ALB: 2.2 ng/mg
  Ba/Cr: 0.099 µg/mmol
  Urine Ba: 0.15 ng/mL
[22]
  Ba/ALB: 3.0 ng/mg
  Ba/Cr: 0.078 µg/mmol
  Urine Ba: 0.15 ng/mL
[23]
  Ba/ALB: 1.8 ng/mg
  Ba/Cr: 0.058 µg/mmol
  Urine Ba: 0.13 ng/mL
[24]
  Ba/ALB: 7.5 ng/mg
  Ba/Cr: 0.175 µg/mmol
  Urine Ba: 0.49 ng/mL
[25]
  Ba/ALB: 2.3 ng/mg
  Ba/Cr: 0.075 µg/mmol
  Urine Ba: 0.14 ng/mL
[26]
  Ba/ALB: 4.5 ng/mg
  Ba/Cr: 0.213 µg/mmol
  Urine Ba: 0.62 ng/mL
[27]
  Ba/ALB: 1.7 ng/mg
  Ba/Cr: 0.036 µg/mmol
  Urine Ba: 0.16 ng/mL
Patient C, 200 mg TID, Screen
  Ba/ALB: 1.5 ng/mg
  Ba/Cr: 0.065 µg/mmol
  Urine Ba: 0.12 ng/mL
[28]
  Ba/ALB: 10.9 ng/mg
  Ba/Cr: 2.5 µg/mmol
  Urine Ba: 14.2 ng/mL
Patient D, 200 mg TID, Day 4
  Ba/ALB: 3.5 ng/mg
  Ba/Cr: 1.0 µg/mmol
  Urine Ba: 4.4 ng/mL
[29]
  Ba/ALB: 6.5 ng/mg
  Ba/Cr: 2.1 µg/mmol
  Urine Ba: 2.4 ng/mL
Patient D, 200 mg TID, Day 10
  Ba/ALB: 2.8 ng/mg
  Ba/Cr: 1.8 µg/mmol
  Urine Ba: 1.8 ng/mL
Patient D, 200 mg TID, Day 14
  Ba/ALB: 4.6 ng/mg
  Ba/Cr: 1.3 µg/mmol
  Urine Ba: 4.1 ng/mL
[30]
  Ba/ALB: 4.3 ng/mg
  Ba/Cr: 2.0 µg/mmol
  Urine Ba: 8.4 ng/mL
[31]
  Ba/ALB: 2.9 ng/mg
  Ba/Cr: 1.7 µg/mmol
  Urine Ba: 5.0 ng/mL
[32]
  Ba/ALB: 7.8 ng/mg
  Ba/Cr: 4.4 µg/mmol
